{"source": "patent US20090239822A1", "about": "“Process for the preparation of esters of diacerein with hyaluronic acid and pharmaceutical compositions containing such esters” (priority 2006, published 2009)", "origin": "cited, not measured here", "conditions": "rhein from the pro-drug diacerein", "data": [{"molecule": "O=C(O)c1cc(O)c2c(c1)C(=O)c1cccc(O)c1C2=O", "note": "[rhein]", "values": [{"measurement": "concentration in the synovial liquid", "value": "1 to 10", "unit": "µM"}]}]}
